# Entries after “also recorded” stand apart in the source; their conditions may differ. Where two headings read alike, the source gives them in different places.
# Experiments:
# [1] = Microsomal stability, pooled mouse liver microsomes; assay type: in vitro ADME; details: 1 μM, 37° C., 60 min
# Method: (§1) Microsomal stability of compound (II-4) (1 μM) was assessed in pooled liver microsomes (human, mouse, and rat) (FIG. 7). Briefly, compound (II-4) was incubated in duplicate with microsomes at 37° C. Reactions contained microsomal protein in 100 mM potassium phosphate, 2 mM NADPH, 3 mM MgCl2, pH 7.4. NADPH was omitted to detect NADPH-free degradation. At 60 minutes, the reaction was stopped by adding ice-cold methanol containing internal standard. Samples were centrifuged to remove precipitated protein, and the supernatants were analyzed by LC/MS/MS to quantitate the remaining parent.
# as §1, with “23).” for “7).”, “min,” for “minutes,”, “(+” for “containing”, “standard).” for “standard.”
# [2] = system: retinal endothelial cells (REC); experiment: REC scratch-wound assay, VEGF-induced migration; assay type: cell-based, human; details: for IC50: Homo sapiens, Endothelial cell
# Method: RECs were wounded and treated with VEGF (20 ng/mL) and either compound (II-4) (1 μM) or vehicle. Compound (II-4) reduced migration by ˜10-fold when measured 24 hrs post-scratch. (*P<0.001; n=6).
# Two methods of evaluating VEGF-induced REC migration were used to assess the impact of compound (II-4) on paxillin-mediated migration: the scratch assay and the transwell (Boyden chamber) cell migration assay. To test if paxillin inhibition would reduce VEGF-induced REC migration, RECs were wounded and treated with VEGF ([…]) +/− compound (II-4) ([…]). Wound closure was monitored by phase microscopy over 24 hours and area of wound closure was calculated using the sophisticated image analysis tools in Adobe Photoshop. Cells were then fixed and nuclei were stained using DAPI to show extent of cell migration.
# FIG. 2: REC scratch-wound assay. RECs were wounded and treated with VEGF (20 ng/mL) and either compound (II-4) (1 μM) or vehicle. Compound (II-4) reduced migration by ˜10-fold when measured 24 hrs post-scratch. (*P<0.001; n=6)
# FIG. 17: REC migration. A) Increasing concentrations of compound (II-4) inhibit VEGF-induced migration in a scratch wound assay; [Serum Free-control, VEGF (100 ng/mL), VEGF+100 nM, 500 nM, 10 μM, 100 μM] (IC50≈180 ηM; n=6/group). Cells were stained with DAPI for representative images. B) RECs seeded onto transwell membranes were stimulated with VEGF+ vehicle or compound (II-4) for 24 hrs. Cells were removed from the topside of membrane and migrated cells were stained with DAPI [Serum-Free (SF), VEGF, +100, +500 nM, respectively]. Cell number was measured using fluorescence microscopy. All data are mean±SD (*, # P<0.001)
# ERK1/2 = experiment: Western blot of VEGF-induced ERK1/2 phosphorylation in REC; assay type: cell-based, human; details: REC under VEGF; compound (II-4) 500 nM, SU6656 1 μM
# Method: REC, Mel 270, OMM 2.5 under Hepatocyte Growth Factor (HGF) or Vascular Endothelial Growth Factor (VEGF) stimulation conditions: Cell lysates were collected in RIPA lysis buffer (50 mM Tris-HCl, pH 7.4, 150 mM NaCl, 2 mM EDTA, 1% Nonidet P-40, 0.1% SDS) with protease 1× inhibitor cocktail (Roche; Indianapolis, Ind.). Lysates were kept on ice and centrifuged at 10,000×g×10 minutes and total protein was measured using the BCA assay (Pierce, Rockford, Ill.). Protein samples were mixed with 4×LDS loading buffer with 2.5% 2-mercaptoethanol (Sigma-Aldrich), heated to 70° C. for 10 minutes, and loaded on NuPAGE 4-12% Bis-Tris gel (Invitrogen, Carlsbad, Calif.). Immunoblotting was performed with nitrocellulose membranes (Bio-Rad, Hercules, Calif.) at 170-mA start and 110-mA end at 25 V for two hours in NuPAGE transfer buffer (Invitrogen) containing 20% methanol. Membranes were blocked using Odyssey blocking buffer (LI-COR; Lincoln, Nebr.) for one hour at room temperature with gentle shaking Membranes were then incubated at 4° C. with specific primary antibodies (1:1000) overnight. Cellular protein was normalized using rabbit-GAPDH or mouse-α-Tubulin [1:20,000] (Cell Signaling, Danvers, Mass.; LI-COR, respectively). […] Dual-channel infrared scan and quantitation of immunoblots were conducted using the ODYSSEY Sa infrared imaging system with Image Studio (Ver. 3.1.4) (LI-COR). […]
smiles,measurement,setting,value
COc1cc(C2OC(=O)Nc3c2ccc2ccccc32)cc(OC)c1OC (centres unmarked) [compound II-4],microsomal stability (metabolism by cytochrome P-450 enzymes),[1],rapidly metabolized
same,IC50,"[2]; VEGF (100 ng/mL), n=6/group, read-out: IC50, inhibition of VEGF-induced migration in scratch wound assay",~180 nM
same,IC50,"[2]; wound closure at 24 hours, VEGF (100 μg/mL), compound 100 μM to 10 μM as printed, read-out: IC50, inhibition of VEGF-induced REC migration (wound closure)",181 nM
same,reduction of migration in REC scratch-wound assay,"[2]; VEGF (20 ng/mL), compound (II-4) 1 μM vs vehicle, 24 hrs post-scratch",~10 fold
same,VEGF-dependent ERK1/2 phosphorylation,ERK1/2,No significant change; also recorded: Neither SU6656 nor compound (II-4) decreased
